Source: paper PMC6009956, “Design, synthesis and biological activity of N^4-phenylsubstituted-7H-pyrrolo[2,3-d]pyrimidin-4-amines as dual inhibitors of aurora kinase A and epidermal growth factor receptor kinase” (Journal of Enzyme Inhibition and Medicinal Chemistry, 2017)
Read-outs that look alike come from different tables or passages of the source.

How the values were obtained:
EGFR = EGFR (Homo sapiens, UniProt P00533); test: ADP-Glo kinase assay, EGFR; format: biochemical; design: purchased BPS Bioscience (assay run externally by the vendor)
EGFR, sequence (P00533 25-1210): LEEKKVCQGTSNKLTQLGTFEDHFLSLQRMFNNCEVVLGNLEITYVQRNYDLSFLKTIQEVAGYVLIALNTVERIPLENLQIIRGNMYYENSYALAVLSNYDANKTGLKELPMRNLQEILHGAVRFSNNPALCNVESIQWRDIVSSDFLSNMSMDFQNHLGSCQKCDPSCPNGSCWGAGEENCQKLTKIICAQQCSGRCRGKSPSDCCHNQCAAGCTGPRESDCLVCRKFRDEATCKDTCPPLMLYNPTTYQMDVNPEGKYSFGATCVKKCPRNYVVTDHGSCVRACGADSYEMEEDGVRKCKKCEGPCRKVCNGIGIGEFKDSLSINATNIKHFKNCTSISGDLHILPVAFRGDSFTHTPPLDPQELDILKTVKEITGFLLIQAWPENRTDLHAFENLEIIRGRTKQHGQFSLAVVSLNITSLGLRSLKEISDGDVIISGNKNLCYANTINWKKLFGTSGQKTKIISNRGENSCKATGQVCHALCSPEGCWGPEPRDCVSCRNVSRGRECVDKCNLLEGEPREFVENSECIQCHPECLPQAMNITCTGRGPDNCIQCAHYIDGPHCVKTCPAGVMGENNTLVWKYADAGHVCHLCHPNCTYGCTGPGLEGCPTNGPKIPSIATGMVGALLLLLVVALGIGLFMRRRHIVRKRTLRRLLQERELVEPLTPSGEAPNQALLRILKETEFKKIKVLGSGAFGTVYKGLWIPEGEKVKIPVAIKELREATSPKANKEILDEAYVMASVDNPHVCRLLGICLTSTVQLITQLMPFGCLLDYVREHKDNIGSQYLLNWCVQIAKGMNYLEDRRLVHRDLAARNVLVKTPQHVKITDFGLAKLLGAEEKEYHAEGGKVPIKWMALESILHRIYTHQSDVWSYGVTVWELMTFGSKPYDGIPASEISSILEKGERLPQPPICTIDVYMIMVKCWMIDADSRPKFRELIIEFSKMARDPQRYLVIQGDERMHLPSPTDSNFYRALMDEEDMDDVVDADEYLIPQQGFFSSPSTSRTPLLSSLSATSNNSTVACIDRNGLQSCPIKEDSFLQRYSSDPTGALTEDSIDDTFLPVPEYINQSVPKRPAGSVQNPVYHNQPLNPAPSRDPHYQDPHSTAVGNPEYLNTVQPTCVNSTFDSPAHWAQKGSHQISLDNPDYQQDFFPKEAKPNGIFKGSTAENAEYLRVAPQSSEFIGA

aurora A kinase (AURKA) = target: T1, aurora A kinase (AURKA) (Homo sapiens, UniProt O14965); test: ADP-Glo kinase assay, Aurora A; format: biochemical
T1 construct: purchased BPS Bioscience (assay run externally by the vendor)
T1 sequence (O14965 1-403): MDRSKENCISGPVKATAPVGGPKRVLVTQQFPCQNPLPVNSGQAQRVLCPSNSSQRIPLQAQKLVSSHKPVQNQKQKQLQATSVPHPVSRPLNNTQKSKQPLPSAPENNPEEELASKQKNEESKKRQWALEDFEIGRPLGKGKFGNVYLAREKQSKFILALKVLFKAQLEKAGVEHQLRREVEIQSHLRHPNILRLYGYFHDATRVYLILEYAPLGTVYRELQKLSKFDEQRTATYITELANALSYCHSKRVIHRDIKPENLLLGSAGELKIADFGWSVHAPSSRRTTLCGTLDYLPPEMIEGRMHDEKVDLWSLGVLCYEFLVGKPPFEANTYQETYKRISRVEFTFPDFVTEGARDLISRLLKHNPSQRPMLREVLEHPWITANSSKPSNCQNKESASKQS

[1] = 10 µM ATP, triplicate, read-out: EGFR IC50 ± SD
[2] = 10 µM ATP/0.2 mg/ml Poly-Glu-Tyr, read-out: EGFR IC50 (dose-response curve, supplement)
[3] = 10 µM ATP, triplicate, read-out: AURKA IC50 ± SD
[4] = 10 µM ATP/0.2 mg/ml Kemptide, read-out: Aurora A IC50 (dose-response curve, supplement)

SMILES: Clc1ccccc1Nc1ncnc2[nH]ccc12 [Compound 14, N^4-(2-chlorophenyl)-7H-pyrrolo[2,3-d]pyrimidin-4-amine]
- IC50 (EGFR; [1]): 0.471 ± 0.114 µM
- IC50 (EGFR; [2]): 0.471 µM
- EGFR % Activity Set1 (EGFR; Log[nM] 0): 100%
- EGFR % Activity Set2 (EGFR; Log[nM] 0): 95%
- EGFR % Activity Set3 (EGFR; Log[nM] 0): 94%
- EGFR % Activity Set1 (EGFR; Log[nM] 1.0): 105%
- EGFR % Activity Set2 (EGFR; Log[nM] 1.0): 90%
- EGFR % Activity Set3 (EGFR; Log[nM] 1.0): 96%
- EGFR % Activity Set1 (EGFR; Log[nM] 1.5): 108%
- EGFR % Activity Set2 (EGFR; Log[nM] 1.5): 83%
- EGFR % Activity Set3 (EGFR; Log[nM] 1.5): 93%
- EGFR % Activity Set1 (EGFR; Log[nM] 2.0): 89%
- EGFR % Activity Set2 (EGFR; Log[nM] 2.0): 75%
- EGFR % Activity Set3 (EGFR; Log[nM] 2.0): 84%
- EGFR % Activity Set1 (EGFR; Log[nM] 2.5): 62%
- EGFR % Activity Set2 (EGFR; Log[nM] 2.5): 53%
- EGFR % Activity Set3 (EGFR; Log[nM] 2.5): 57%
- EGFR % Activity Set1 (EGFR; Log[nM] 3.0): 36%
- EGFR % Activity Set2 (EGFR; Log[nM] 3.0): 27%
- EGFR % Activity Set3 (EGFR; Log[nM] 3.0): 33%
- EGFR % Activity Set1 (EGFR; Log[nM] 3.5): 16%
- EGFR % Activity Set2 (EGFR; Log[nM] 3.5): 14%
- EGFR % Activity Set3 (EGFR; Log[nM] 3.5): 16%
- EGFR % Activity Set1 (EGFR; Log[nM] 4.0): 8%
- EGFR % Activity Set2 (EGFR; Log[nM] 4.0): 6%
- EGFR % Activity Set3 (EGFR; Log[nM] 4.0): 7%
- EGFR % Activity Set1 (EGFR; Log[nM] 4.5): 4%
- EGFR % Activity Set2 (EGFR; Log[nM] 4.5): 3%
- EGFR % Activity Set3 (EGFR; Log[nM] 4.5): 3%
- EGFR % Activity Set1 (EGFR; Log[nM] 5.0): 5%
- EGFR % Activity Set2 (EGFR; Log[nM] 5.0): 4%
- EGFR % Activity Set3 (EGFR; Log[nM] 5.0): 4%
- IC50 (aurora A kinase (AURKA); [3]): 5.66 ± 0.43 µM
- IC50 (aurora A kinase (AURKA); [4]): 5.7 µM
- Aurora A % Activity Set1 (aurora A kinase (AURKA); Log[nM] 0): 97%
- Aurora A % Activity Set2 (aurora A kinase (AURKA); Log[nM] 0): 92%
- Aurora A % Activity Set3 (aurora A kinase (AURKA); Log[nM] 0): 94%
- Aurora A % Activity Set1 (aurora A kinase (AURKA); Log[nM] 1.0): 102%
- Aurora A % Activity Set2 (aurora A kinase (AURKA); Log[nM] 1.0): 97%
- Aurora A % Activity Set3 (aurora A kinase (AURKA); Log[nM] 1.0): 98%
- Aurora A % Activity Set1 (aurora A kinase (AURKA); Log[nM] 1.5): 111%
- Aurora A % Activity Set2 (aurora A kinase (AURKA); Log[nM] 1.5): 96%
- Aurora A % Activity Set3 (aurora A kinase (AURKA); Log[nM] 1.5): 98%
- Aurora A % Activity Set1 (aurora A kinase (AURKA); Log[nM] 2.0): 103%
- Aurora A % Activity Set2 (aurora A kinase (AURKA); Log[nM] 2.0): 98%
- Aurora A % Activity Set3 (aurora A kinase (AURKA); Log[nM] 2.0): 102%
- Aurora A % Activity Set1 (aurora A kinase (AURKA); Log[nM] 2.5): 101%
- Aurora A % Activity Set2 (aurora A kinase (AURKA); Log[nM] 2.5): 106%
- Aurora A % Activity Set3 (aurora A kinase (AURKA); Log[nM] 2.5): 101%
- Aurora A % Activity Set1 (aurora A kinase (AURKA); Log[nM] 3.0): 87%
- Aurora A % Activity Set2 (aurora A kinase (AURKA); Log[nM] 3.0): 86%
- Aurora A % Activity Set3 (aurora A kinase (AURKA); Log[nM] 3.0): 93%
- Aurora A % Activity Set1 (aurora A kinase (AURKA); Log[nM] 3.5): 73%
- Aurora A % Activity Set2 (aurora A kinase (AURKA); Log[nM] 3.5): 68%
- Aurora A % Activity Set3 (aurora A kinase (AURKA); Log[nM] 3.5): 73%
- Aurora A % Activity Set1 (aurora A kinase (AURKA); Log[nM] 4.0): 28%
- Aurora A % Activity Set2 (aurora A kinase (AURKA); Log[nM] 4.0): 25%
- Aurora A % Activity Set3 (aurora A kinase (AURKA); Log[nM] 4.0): 27%
- Aurora A % Activity Set1 (aurora A kinase (AURKA); Log[nM] 4.5): 14%
- Aurora A % Activity Set2 (aurora A kinase (AURKA); Log[nM] 4.5): 13%
- Aurora A % Activity Set3 (aurora A kinase (AURKA); Log[nM] 4.5): 14%
- Aurora A % Activity Set1 (aurora A kinase (AURKA); Log[nM] 5.0): 13%
- Aurora A % Activity Set2 (aurora A kinase (AURKA); Log[nM] 5.0): 11%
- Aurora A % Activity Set3 (aurora A kinase (AURKA); Log[nM] 5.0): 14%

SMILES: Cc1ccccc1Nc1ncnc2[nH]ccc12 [Compound 15, N^4-(2-methylphenyl)-7H-pyrrolo[2,3-d]pyrimidin-4-amine]
- IC50 (EGFR; [1]): 1.23 ± 0.201 µM
- IC50 (EGFR; [2]): 1.2 µM
- EGFR % Activity Set1 (EGFR; Log[nM] 0): 97%
- EGFR % Activity Set2 (EGFR; Log[nM] 0): 98%
- EGFR % Activity Set3 (EGFR; Log[nM] 0): 121%
- EGFR % Activity Set1 (EGFR; Log[nM] 1.0): 109%
- EGFR % Activity Set2 (EGFR; Log[nM] 1.0): 101%
- EGFR % Activity Set3 (EGFR; Log[nM] 1.0): 128%
- EGFR % Activity Set1 (EGFR; Log[nM] 1.5): 113%
- EGFR % Activity Set2 (EGFR; Log[nM] 1.5): 108%
- EGFR % Activity Set3 (EGFR; Log[nM] 1.5): 122%
- EGFR % Activity Set1 (EGFR; Log[nM] 2.0): 111%
- EGFR % Activity Set2 (EGFR; Log[nM] 2.0): 102%
- EGFR % Activity Set3 (EGFR; Log[nM] 2.0): 99%
- EGFR % Activity Set1 (EGFR; Log[nM] 2.5): 77%
- EGFR % Activity Set2 (EGFR; Log[nM] 2.5): 82%
- EGFR % Activity Set3 (EGFR; Log[nM] 2.5): 84%
- EGFR % Activity Set1 (EGFR; Log[nM] 3.0): 55%
- EGFR % Activity Set2 (EGFR; Log[nM] 3.0): 59%
- EGFR % Activity Set3 (EGFR; Log[nM] 3.0): 52%
- EGFR % Activity Set1 (EGFR; Log[nM] 3.5): 20%
- EGFR % Activity Set2 (EGFR; Log[nM] 3.5): 24%
- EGFR % Activity Set3 (EGFR; Log[nM] 3.5): 23%
- EGFR % Activity Set1 (EGFR; Log[nM] 4.0): 12%
- EGFR % Activity Set2 (EGFR; Log[nM] 4.0): 12%
- EGFR % Activity Set3 (EGFR; Log[nM] 4.0): 10%
- EGFR % Activity Set1 (EGFR; Log[nM] 4.5): 4%
- EGFR % Activity Set2 (EGFR; Log[nM] 4.5): 5%
- EGFR % Activity Set3 (EGFR; Log[nM] 4.5): 4%
- EGFR % Activity Set1 (EGFR; Log[nM] 5.0): 4%
- EGFR % Activity Set2 (EGFR; Log[nM] 5.0): 3%
- EGFR % Activity Set3 (EGFR; Log[nM] 5.0): 3%
- IC50 (aurora A kinase (AURKA); [3]): 8.56 ± 1.74 µM
- IC50 (aurora A kinase (AURKA); [4]): 8.5 µM
- Aurora A % Activity Set1 (aurora A kinase (AURKA); Log[nM] 0): 95%
- Aurora A % Activity Set2 (aurora A kinase (AURKA); Log[nM] 0): 97%
- Aurora A % Activity Set3 (aurora A kinase (AURKA); Log[nM] 0): 102%
- Aurora A % Activity Set1 (aurora A kinase (AURKA); Log[nM] 1.0): 102%
- Aurora A % Activity Set2 (aurora A kinase (AURKA); Log[nM] 1.0): 103%
- Aurora A % Activity Set3 (aurora A kinase (AURKA); Log[nM] 1.0): 102%
- Aurora A % Activity Set1 (aurora A kinase (AURKA); Log[nM] 1.5): 105%
- Aurora A % Activity Set2 (aurora A kinase (AURKA); Log[nM] 1.5): 105%
- Aurora A % Activity Set3 (aurora A kinase (AURKA); Log[nM] 1.5): 107%
- Aurora A % Activity Set1 (aurora A kinase (AURKA); Log[nM] 2.0): 98%
- Aurora A % Activity Set2 (aurora A kinase (AURKA); Log[nM] 2.0): 107%
- Aurora A % Activity Set3 (aurora A kinase (AURKA); Log[nM] 2.0): 109%
- Aurora A % Activity Set1 (aurora A kinase (AURKA); Log[nM] 2.5): 103%
- Aurora A % Activity Set2 (aurora A kinase (AURKA); Log[nM] 2.5): 103%
- Aurora A % Activity Set3 (aurora A kinase (AURKA); Log[nM] 2.5): 107%
- Aurora A % Activity Set1 (aurora A kinase (AURKA); Log[nM] 3.0): 92%
- Aurora A % Activity Set2 (aurora A kinase (AURKA); Log[nM] 3.0): 102%
- Aurora A % Activity Set3 (aurora A kinase (AURKA); Log[nM] 3.0): 98%
- Aurora A % Activity Set1 (aurora A kinase (AURKA); Log[nM] 3.5): 66%
- Aurora A % Activity Set2 (aurora A kinase (AURKA); Log[nM] 3.5): 73%
- Aurora A % Activity Set3 (aurora A kinase (AURKA); Log[nM] 3.5): 70%
- Aurora A % Activity Set1 (aurora A kinase (AURKA); Log[nM] 4.0): 44%
- Aurora A % Activity Set2 (aurora A kinase (AURKA); Log[nM] 4.0): 48%
- Aurora A % Activity Set3 (aurora A kinase (AURKA); Log[nM] 4.0): 48%
- Aurora A % Activity Set1 (aurora A kinase (AURKA); Log[nM] 4.5): 18%
- Aurora A % Activity Set2 (aurora A kinase (AURKA); Log[nM] 4.5): 18%
- Aurora A % Activity Set3 (aurora A kinase (AURKA); Log[nM] 4.5): 19%
- Aurora A % Activity Set1 (aurora A kinase (AURKA); Log[nM] 5.0): 11%
- Aurora A % Activity Set2 (aurora A kinase (AURKA); Log[nM] 5.0): 11%
- Aurora A % Activity Set3 (aurora A kinase (AURKA); Log[nM] 5.0): 11%
